We go through ten molecules from article PMC6848146, “Binding and structural analyses of potent inhibitors of the human Ca^2+/calmodulin dependent protein kinase kinase 2 (CAMKK2) identified from a collection of commercially-available kinase inhibitors” (Scientific Reports, 2019).

The structures appear in SMILES notation. Read-outs that look alike come from different tables or passages of the source. Marks after values point to notes of the source that are not given here.

The target in test [1] is T1, CAMKK2-KD (kinase domain of CAMKK2) (Homo sapiens, UniProt Q96RR4).
T1 construct: the protein kinase domain (amino acids 161–449); hexahistidine (6xHis), TEV-cleavable; made in house
Kind of test: DSF thermal-shift screen, 384-well format. The test is classed as binding. The settings on record: 10 µM compound, 1 µM kinase, 0.1% DMSO, single measurement. The method, then: (§1) We employed a thermal-shift assay (Differential Scanning Fluorimetry, DSF)[19] to identify compounds that can bind to the kinase domain of CAMKK2 (CAMKK2-KD). Protein thermal denaturation curves (Fig. 1A,B) were used to calculate the denaturation midpoint temperature (Tm) for the kinase domain of CAMKK2 in the presence of ligands or vehicle only (DMSO). […] DSF screens were performed on purified CAMKK2-KD using a library of commercially available, chemically diverse, ATP-competitive, kinase inhibitors.
DSF experiments in 384-well format followed a protocol previously established at the SGC-UNICAMP and described elsewhere.
The compounds, previously solubilized in DMSO, were used at 10 µM final concentration and 0.1% DMSO. Plates were sealed using optically clear films and transferred to a QuantStudio 6 qPCR instrument (Applied Biosystems). […] Protein in 0.1% DMSO was used as a reference.
(§2) For both formats, experiments were performed in singlets.

A further test has as its target T2, CAMKK2-FL (Homo sapiens, UniProt Q96RR4).
T2 construct: an enzymatic assay using the full-length protein (CAMKK2-FL); purchased Eurofins Discovery (MO, USA), assay service
Kind of test: Radiometric enzymatic assay (Eurofins Discovery), Ca2+/Calmodulin present. The test is classed as biochemical. The settings on record: for fold more active towards CAMKK2-FL than CAMKK1-FL: from IC50 values of Table 1; for IC50: 90 µM ATP, single measurement.

For a further test, the target named is T3, CAMKK1-FL (Homo sapiens, UniProt Q8N5S9).
T3 construct: purchased Eurofins Discovery (MO, USA), assay service
Described as above. It counts as biochemical. The conditions noted are these: 200 µM ATP; single measurement. As for the experimental part: All compounds employed in this study were initially developed to target other human protein kinases, and some are known to be quite promiscuous[18],[21].
Reaction conditions for assays using CAMKK1-FL were: 8 mM MOPS pH 7.0, 0.2 mM EDTA, 0.33 mg/mL MBP (myelin basic protein), 0.5 mM calcium chloride, 0.016 mg/ml calmodulin, 10 mM magnesium acetate and [gamma-^33P-ATP] (200 µM). […] The reactions were initiated by the addition of a Mg^2+-ATP mixture. After incubation for 40 minutes at room temperature, the reaction was stopped by the addition of phosphoric acid to a final concentration of 0.5%. […] Following subtraction of the average inhibitor control well counts, results were expressed as a percentage of the mean kinase activity in the positive control sample.

The next test concerns the target CAMKK2-KD (Homo sapiens, UniProt Q96RR4). The experiment in a line: Isothermal titration calorimetry (reverse titration). The settings on record: 20 °C.
In test [2] the target is T1, CAMKK2-KD (kinase domain of CAMKK2). Kind of test: DSF thermal-shift screen, 96-well format. The test is classed as binding. The conditions noted are these: 96-well format, 12 µM compound, 2 µM kinase, 2.5% DMSO, single measurement. As for the experimental part:
as §1
SYPRO Orange dye (Invitrogen) was used in 5X as final concentration.
Plates were sealed using optically clear films and transferred to an Mx3005p RT-PCR machine (Agilent).
as §2

A further test deals with CAMKK2. Also noted: method as in Anastassiadis et al. (2011). The settings on record: 0.5 µM compound; ref Anastassiadis et al. (2011); cited from earlier work.
Another test concerns CAMKK1. Also noted: method as in Anastassiadis et al. (2011). The conditions noted are these: 0.5 µM compound; ref Anastassiadis et al. (2011); cited from earlier work.
Test [3] concerns six other kinases (panel of 92 protein kinases). Also noted: method as in PMID 17850214. The conditions noted are these: screened against a panel of only 92 protein kinases; cited from earlier work.
The mark [4] stands for this setting: individual ITC experiment, run 1.
The mark [5] stands for this setting: individual ITC experiment, run 2.

Sequence of CAMKK2-KD (Q96RR4 161-449): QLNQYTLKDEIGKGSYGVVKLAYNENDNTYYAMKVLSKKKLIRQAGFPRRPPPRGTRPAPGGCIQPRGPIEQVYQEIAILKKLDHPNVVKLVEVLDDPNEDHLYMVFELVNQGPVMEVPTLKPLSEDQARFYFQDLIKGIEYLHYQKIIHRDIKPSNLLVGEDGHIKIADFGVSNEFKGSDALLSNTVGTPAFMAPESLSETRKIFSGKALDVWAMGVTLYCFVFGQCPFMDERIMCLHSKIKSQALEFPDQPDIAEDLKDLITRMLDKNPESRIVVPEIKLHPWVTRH
T1 sequence (Q96RR4 161-449): as above

Consider `COc1cc(N2CCC(N(C)C)CC2)ccc1Nc1ncc(Cl)c(Nc2ccccc2P(C)(C)=O)n1` [ALK-IN-1], for which the ΔTm (in general, the shift of the melting midpoint relative to a reference) in test [1] is 11.2^d °C. Further, the “fold more active towards CAMKK2-FL than CAMKK1-FL” value at CAMKK2-FL is recorded as ~ 10 fold. Moreover, half-maximal inhibition against CAMKK1-FL (IC50) required 182 nM. Further, the “ΔH Run 1” value at CAMKK2-KD (setting [4]) is -10.3 kcal/mol. The “ΔG Run 2” value at CAMKK2-KD (setting [5]) is -10.9 kcal/mol. Besides, the “ΔH Run 2” value at CAMKK2-KD (setting [5]) is -9.73 kcal/mol. In addition, the Kd (in general, the constant that tells how readily two partners part at equilibrium) worked out at 2 nM at CAMKK2-KD (read-out: ITC KD, serial integrations of two independent experiments); 2.5 nM on CAMKK2-KD (read-out: KD Run 1, individual ITC experiment, run 1); 2 nM on CAMKK2-KD (read-out: KD Run 2, individual ITC experiment, run 2).
On to `CC(C)[C@H](CO)Nc1nc(Nc2cc(N)cc(Cl)c2)c2ncn(C(C)C)c2n1` [Aminopurvalanol], for which the ΔTm at 12 µM in test [2] (read-out: ΔTm) worked out at 9.7 °C. Also, the IC50 (commonly the midpoint of a concentration-inhibition curve) at CAMKK2-FL turned out to be 159 nM; on CAMKK1-FL it was 188 nM. For the same molecule, in the test with CAMKK2, the “% Activity Remaining at 0.5 µM, CAMKK2” value is recorded as 33.3%. The “% Activity Remaining at 0.5 µM, CAMKK1” value in the test on CAMKK1 is 86.8%.
In the case of `CC[C@@H]1C(=O)N(C)c2cnc(Nc3ccc(C(=O)N[C@H]4CC[C@H](N5CCN(CC6CC6)CC5)CC4)cc3OC)nc2N1C(C)C` [BI 6727, Volasertib], the ΔTm at 10 µM in test [1] is 6 °C. The IC50 at CAMKK2-FL turned out to be 44 nM; on CAMKK1-FL, 87 nM.
For `CN(C)CCCn1cc(C2=C(c3c[nH]c4ccccc34)C(=O)NC2=O)c2ccccc21` [BIM I], the shift in melting temperature (ΔTm) in test [2] was 7.2^e °C. The concentration for half-maximal inhibition (IC50) against CAMKK1-FL came to 2590 nM.
`COCCOc1ccc2c(c1)ncn2-c1ccc2cccc(N3CCC(N)CC3)c2n1` [CP-673451]: the thermal shift (ΔTm) at 10 µM in test [1] was 10 °C. In addition, the half-maximal inhibitory concentration (IC50) against CAMKK2-FL turned out to be 19 nM; against CAMKK1-FL, 122 nM. Besides, on CAMKK2-FL, the “fold more active towards CAMKK2-FL than CAMKK1-FL” value was ~ 10 fold. Besides, the Kd was 2 nM at CAMKK2-KD (ITC KD, serial integrations of two independent experiments); 2.6 nM at CAMKK2-KD (KD Run 1, individual ITC experiment, run 1); 1.5 nM at CAMKK2-KD (KD Run 2, individual ITC experiment, run 2). Besides, the “ΔG Run 1” value at CAMKK2-KD (setting [4]) is -11.5 kcal/mol. The “ΔH Run 1” value on CAMKK2-KD (setting [4]) was -13.2 kcal/mol. The “ΔG Run 2” value at CAMKK2-KD (setting [5]) was -11.8 kcal/mol. For the same molecule, the “ΔH Run 2” value on CAMKK2-KD (setting [5]) is -13 kcal/mol.
On to `CC1(COc2ccc3c(c2)ncn3-c2ccc3cccc(N4CCC(N)CC4)c3n2)COC1` [Crenolanib (CP-868596), Crenolanib], for which, in test [1], the ΔTm at 10 µM was 10.6 °C. Also, the IC50 on CAMKK2-FL turned out to be 21 nM; against CAMKK1-FL, 82 nM.
Consider `COC(=O)[C@@]1(O)C[C@H]2O[C@]1(C)n1c3ccccc3c3c4c(c5c6ccccc6n2c5c31)C(=O)NC4` [K252a], for which, in test [2], the shift in melting temperature (ΔTm) is 18.3^e °C. In addition, the IC50 came to 50 nM against CAMKK2-FL and 51 nM against CAMKK1-FL.
With `O=C(O)c1ccc2c3c1cccc3c(=O)n1c3ccccc3nc21` [STO-609], the half-inhibitory concentration (IC50) in test [3] is < 250 nM.
Take `CN[C@@H]1C[C@H]2O[C@@](C)([C@@H]1OC)n1c3ccccc3c3c4c(c5c6ccccc6n2c5c31)C(=O)NC4` [Staurosporine]: the “% Activity Remaining at 0.5 µM, CAMKK2” value in the test on CAMKK2 is on record as 0.24%. In addition, the “% Activity Remaining at 0.5 µM, CAMKK1” value in the test with CAMKK1 is -3.13%.
For `CNC(=O)c1ccccc1Nc1nc(Nc2ccc(N3CCOCC3)cc2OC)ncc1Cl` [TAE226], the ΔTm in test [1] was 7.5^d °C. For the same molecule, the midpoint of inhibition against CAMKK1-FL, the IC50, lay at 395 nM.
